What was measured:
[1] = system: phospho-ERK in A375 (BRAF V600E) xenograft; assay: A375 mouse xenograft pharmacodynamic assay (tumor phospho-ERK by ELISA); assay type: in vivo; conditions: A375 xenografts in nude female mice, 20 mg/kg oral (gavage), vs vehicle
Protocol: To evaluate the in vivo pharmacodynamic (PD) effects of compounds of Formula I, an A375 (BRAF V600E) xenograft model is employed. Briefly, 10×10^6 A375 tumor cells (ATCC) are prepared in a 1:1 matrigel mix (0.2 mL total volume) and implanted by subcutaneous injection in hind leg of nude female mice. A total of 4 mice each for each dosing group are employed. Treatment is initiated with oral administration (gavage) of test compound or vehicle (20% captisol, 25 mM phosphate, pH2.0) in 0.2 mL volume when average tumor size reaches approximately 300 mg. After a fixed time interval, the tumors are harvested and the phospho-ERK levels are measured by ELISA (Enzyme-linked immunosorbent assay). Treated groups are compared to the vehicle control group to calculate % inhibition.

[2] = system: A375 V600E xenograft tumor; assay: A375 rat xenograft efficacy model; assay type: in vivo, rats; conditions: orally twice a day at 10 and 20 mg/kg for 21 days
Protocol: To further evaluate in vivo activity of compounds of Formula I, A375 V600E (ATCC) and HCT-116 K—Ras mutant B-Raf wild type (ATCC) xenograft tumor models are used. Briefly, 10×10^6 cells (A375) or 5×10^6 cells (HCT-116) in a 1:1 medium and matrigel mix (0.2 mL total volume) are implanted by subcutaneous injection in the hind leg of nude female rats (NIH model No. NIHRNU-M from Taconic). A total of 8 rats in each group are used for the efficacy study, and a total of 3-4 rats in each group are used for a pharmacodynamic study. Treatment is initiated with oral administration (gavage) of test compound or vehicle (20% Captisol®, 25 mM phosphate, pH 2.0) in 0.6 mL volume when tumor size reaches approximately 500 mg. Test compound is orally dosed twice a day for 21 days. Tumor growth and body weight are monitored over time to evaluate activity and signs of toxicity. Bidimensional measurements of tumors are performed twice a week and tumor volumes are calculated based on mid-axis length and mid-axis width. Tumor volume data are transformed to a log scale to equalize variance across time and treatment groups. The log volume data are analyzed with a two-way repeated measures analysis of variance by time and treatment using the MIXED® procedures in SAS® software (version 8.2). The correlation model for the repeated measures is spatial power. […]

[3] = system: phospho-ERK in HCT-116 cells; assay: HCT-116 cell pERK assay (AlphaScreen SureFire); assay type: cell-based; conditions: Homo sapiens, B-Raf wild type, K-Ras mutation, 4 hours, range over the listed examples, read-out: phospho-ERK signal IC50
Protocol: Examples of Formula I are tested against HCT-116 cells harboring wild type B-Raf and K-Ras mutation. The phospho-ERK activities are evaluated as described below.
HCT-116 cells (catalog #CCL-247) are obtained from the American Type Culture Collection (ATCC, Manassas, Va.). Briefly, cells are grown in McCoy's 5A supplemented with 10% characterized fetal bovine serum (Invitrogen, Carlsbad, Calif.), and 1% Penicillin/Streptomycin/L-Glutamine at 37 degrees Celsius, 5% CO2, and 95% humidity. Cells are allowed to expand until reaching 75-90% confluency at which point they are subcultured or harvested for assay use. HCT-116 cells suspended in complete media are added to 384-well tissue culture treated plates (3×10^5 cells/mL; 7,500 cells per well). The cells are incubated overnight at 37 degrees Celsius, 5% CO2, and 95% humidity. Next, test compound or DMSO diluted in complete media is added to the wells (0.25% final DMSO concentration). The plates are then incubated for 4 hours at 37 degrees Celsius, 5% CO2, and 95% humidity. Following compound incubation, the cells are lysed at 4° C. for 20 minutes with shaking. Cell lysates are centrifuged and the supernatant is transferred to a new plate. An aliquot of each lysate is transferred to a white 384-well assay plate. Using the AlphaScreen SureFire pERK kit (Perkin-Elmer, Waltham, Mass.), an acceptor bead mixture is added to each well and incubated for 2 h at room temperature in the dark. A donor bead mixture is then added to each well and incubated for 2 h at room temperature in the dark. Plates are read using a Synergy2 plate reader (Biotek, Winooski, Vt.) in Plate Mode with Timing Control. Read: (F)1: excitation: 680/30 nm, emission: Plug. 2: Excitation: Plug, emission: 570/100 nm. Top mirror 635 nm. Data is analyzed using Prism software (Graphpad, San Diego, Calif.) to calculate IC50 values and Excel software (Microsoft, Redmond, Wash.) to calculate stimulation compared to control.

IC50 shift A375 to A375res (A375res cells)	Compound	Measured pERK inhibition 2 h post dose [1]	other results
0.6-1.9 fold	Cc1cc(F)c(NC(=O)NCCC(C)(C)F)cc1-c1cc2cnc(N)nc2nc1C [Example 28, 1-(5-(2-Amino-7-methylpyrido[2,3-d]pyrimidin-6-yl)-2-fluoro-4-methylphenyl)-3-(3-fluoro-3-methylbutyl)urea]		
0.6-1.9 fold	CNc1ncc2cc(-c3cc(NC(=O)NCCC4(C)CC4)c(F)cc3C)c(C)nc2n1 [Example 24, 1-(2-Fluoro-4-methyl-5-(7-methyl-2-(methylamino)pyrido[2,3-d]pyrimidin-6-yl)phenyl)-3-(2-(1-methylcyclopropyl)ethyl)urea]	88% inhibition	tumor growth ([2]; both dosing groups): tumor growth inhibition and tumor growth regression; animal body weight ([2]; either group): no animal body weight loss; IC50 [3]: 2 to 472 nM
0.6-1.9 fold	CNc1ncc2cc(-c3cc(NC(=O)NCC(O)C(C)(C)C)c(F)cc3C)c(C)nc2n1 (centres unmarked) [Example 15, 1-[2-Fluoro-4-methyl-5-(7-methyl-2-methylamino-pyrido[2,3-d]pyrimidin-6-yl)phenyl]-3-(2-hydroxy-3,3-dimethyl-butyl)urea]		
0.6-1.9 fold	Cc1cc(F)c(NC(=O)NCCC(C)(C)C)cc1-c1cc2cnc(NCCN3CCOCC3)nc2nc1C [Example 21, 1-(3,3-Dimethylbutyl)-3-(2-fluoro-4-methyl-5-(7-methyl-2-((2-morpholinoethyl)amino)pyrido[2,3-d]pyrimidin-6-yl)phenyl)ure]		
0.6-1.9 fold	CNc1ncc2cc(-c3cc(NC(=O)NCCC(C)(C)F)c(F)cc3C)cnc2n1 [Example 34, 1-(3-Fluoro-3-methyl-butyl)-3-[2-fluoro-4-methyl-5-(2-methylaminopyrido[2,3-d]pyrimidin-6-yl)phenyl]urea]	72% inhibition	
	COCCNc1ncc2cc(-c3cc(NC(=O)NCCC(C)(C)C)c(F)cc3C)c(C)nc2n1 [Example 5, 1-(3,3-Dimethylbutyl)-3-(2-fluoro-5-(2-((2-methoxyethyl)amino)-7-methylpyrido[2,3-d]pyrimidin-6-yl)-4-methylphenyl)urea]	77% inhibition	
0.6-1.9 fold	CNc1ncc2cc(-c3cc(NC(=O)NCCC(C)(C)F)c(F)cc3C)c(C)nc2n1 [Example 4, 1-(3-Fluoro-3-methylbutyl)-3-(2-fluoro-4-methyl-5-(7-methyl-2-(methylamino)pyrido[2,3-d]pyrimidin-6-yl)phenyl)urea]	84% inhibition	
	CNc1ncc2cc(-c3cc(NC(=O)NCCC(C)(C)C)c(F)cc3F)c(C)nc2n1 [Example 1, 1-(2,4-Difluoro-5-(7-methyl-2-(methylamino)pyrido[2,3-d]pyrimidin-6-yl)phenyl)-3-(3,3-dimethylbutyl)urea]	54% inhibition	
0.6-1.9 fold	CCNc1ncc2cc(-c3cc(NC(=O)NCCC(C)(C)F)c(F)cc3C)c(C)nc2n1 [Example 26, 1-(5-(2-(Ethylamino)-7-methylpyrido[2,3-d]pyrimidin-6-yl)-2-fluoro-4-methylphenyl)-3-(3-fluoro-3-methylbutyl)urea]		
0.6-1.9 fold	Cc1cc(F)c(NC(=O)NCCC(C)(C)F)cc1-c1cc2cnc(NC3COC3)nc2nc1C [Example 25, 1-(3-Fluoro-3-methylbutyl)-3-(2-fluoro-4-methyl-5-(7-methyl-2-(oxetan-3-ylamino)pyrido[2,3-d]pyrimidin-6-yl)phenyl)urea]		IC50 [3]: 2 to 472 nM
0.6-1.9 fold	Cc1cc(F)c(NC(=O)NCCC(C)(C)C)cc1-c1cc2cnc(N)nc2nc1C [Example 20, 1-(5-(2-Amino-7-methylpyrido[2,3-d]pyrimidin-6-yl)-2-fluoro-4-methylphenyl)-3-(3,3-dimethylbutyl)urea]		
0.6-1.9 fold	Cc1cc(F)c(NC(=O)NCCC(C)(C)C)cc1-c1cc2cnc(NCCO)nc2nc1C [Example 16, 1-(3,3-Dimethylbutyl)-3-[2-fluoro-5-[2-(2-hydroxyethylamino)-7-methyl-pyrido[2,3-d]pyrimidin-6-yl]-4-methyl-phenyl]urea]		
0.6-1.9 fold	CNc1ncc2cc(-c3cc(NC(=O)NCCC4(C(F)(F)F)CC4)c(F)cc3C)c(C)nc2n1 [Example 30, 1-(2-Fluoro-4-methyl-5-(7-methyl-2-(methylamino)pyrido[2,3-d]pyrimidin-6-yl)phenyl)-3-(2-(1-(trifluoromethyl)cyclopropyl)ethyl)urea]		
	CNc1ncc2cc(-c3ccc(F)c(NC(=O)NCCC(C)(C)C)c3)c(C)nc2n1 [Example 2, 1-(3,3-Dimethylbutyl)-3-(2-fluoro-5-(7-methyl-2-(methylamino)pyrido[2,3-d]pyrimidin-6-yl)phenyl)urea]	38% inhibition	
0.6-1.9 fold	CNc1ncc2cc(-c3cc(NC(=O)NCCC(C)(C)C)c(F)cc3C)cnc2n1 [Example 35, 1-(3,3-Dimethylbutyl)-3-[2-fluoro-4-methyl-5-(2-methylaminopyrido[2,3-d]pyrimidin-6-yl)phenyl]urea]	79% inhibition	IC50 [3]: 2 to 472 nM
0.6-1.9 fold	Cc1cc(F)c(NC(=O)NCCC(C)(C)C)cc1-c1cc2cnc(NCCN(C)C)nc2nc1C [Example 17, 1-[5-[2-(2-Dimethylaminoethylamino)-7-methyl-pyrido[2,3-d]pyrimidin-6-yl]-2-fluoro-4-methyl-phenyl]-3-(3,3-dimethylbutyl)urea]		
0.6-1.9 fold	CNc1ncc2cc(-c3cc(NC(=O)NCCC(C)(C)C(F)(F)F)c(F)cc3C)c(C)nc2n1 [Example 27, 1-(2-Fluoro-4-methyl-5-(7-methyl-2-(methylamino)pyrido[2,3-d]pyrimidin-6-yl)phenyl)-3-(4,4,4-trifluoro-3,3-dimethylbutyl)urea]		
